The text below walks through data of patent US20200339544A1 (JOINT STOCK COMPANY "BIOCAD", priority 2017, published 2020).

The nature of data set [1]: Chemical stability in simulated intestinal fluid (SIF). Type of data set: physicochemical. As to conditions: SIF without enzymes, pH 6.5; 10 μm; 2 hours at 37° C.; substance amount remaining. Summed up:
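Compound at 10 μm (diluted from 10 mM DMSO stock) incubated 2 h at 37° C in enzyme-free SGF, pH=1,4, or enzyme-free SIF, pH=6.5. HPLC peak areas before and after incubation give % compound remaining.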

Data set [2] is described as follows: Chemical stability in human blood plasma. The class given is in vitro ADME. As to conditions: pooled human blood plasma; 10 μm; 4 hours at 37° C.; substance amount remaining. The procedure, abridged:
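Percent of parent remaining was derived by comparing HPLC peak areas at time zero and after 4 h at 37 °C. Test compound was at 10 μM in human plasma pooled from ten donors, and proteins were precipitated with acetonitrile before analysis.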

Data set [3] relates to HCC827 (lung adenocarcinoma, SM, exon19delE746-A750). Briefly: Antiproliferative activity on HCC827 cells (Alamar Blue). As to conditions: Homo sapiens, antiproliferative test. Type of data set: cell-based. The procedure, abridged:
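HCC827 cells (EGFR exon19del E746-A750), 10×10^3/well, attached 16–18 h, then exposed to compounds for 72 h at 37 °C in RPMI-1640 with 2% FBS, ≤1% DMSO. Viability by Alamar Blue fluorescence (ex 540/em 590 nm) after 3–5 h; IC50 by four-parameter logistic fit.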
Background: Resazurin is reduced to fluorescent resorufin, in cell work by metabolically active cells.

Data set [4] can be described thus: Permeability through monolayer of Caco-2 cells. The class given is in vitro ADME. As to conditions: human, Caco-2 monolayer; for Papp A→B at 2 h, 10 µM: pH 6.5 upper / pH 7.4 lower, 2 h at 37° C.; for efflux ratio at 2 h, 10 µM: Papp B-A/Papp A-B. From the text:
2) Assessment of permeability through monolayer of Caco-2 cells.
Assessment of permeability through the monolayer of Caco-2 cells allows to evaluate the ability of the candidate compounds to penetrate through biological membranes by active and passive transport.
Caco-2, the cells of the intestinal epithelium, had been cultured in transwell plate inserts with the filters (with pores of 0.4 μm, BD Falcon with High Density) for 21 days, and then the integrity of the monolayer were estimated with Lucifer Yellow (Sigma-Aldrich, USA) by standard protocol. When setting the A→B transfer (“intestinal lumen”—“blood stream” transfer), solutions of test substances were added in a buffer with pH 6.5 (HBSS, 10 mM HEPES, 15 mM glucose solution) with the concentration of 10 μM into the upper chamber; the lower chamber was filled with a buffer with pH 7.4 (HBSS, 10 mM HEPES, 15 mM Glucose, 1% BSA). When setting B→A transfer (“blood stream”—“intestinal lumen” transfer), the upper chamber was filled with the buffer with pH 6.5, and solutions of the test substances were added in the buffer with pH 7.4 at the concentration of 10 μM in the lower chamber. Propranolol was used as a control substance (as it has high permeability).
After incubating for 2 h at 37° C. under 5% CO2, the amounts of test substances were determined in the upper and lower chambers by HPLC using Agilent1200 chromatograph (Agilent, USA) with preliminary protein precipitation with acetonitrile. We used gradient elution (1 mL/min flow rate). We determined the areas of peaks corresponding to the compounds. On the basis of peak areas in the calibration standards we determined the concentration of compound in the initial solution and in the samples from the wells of the upper and lower chambers. Papp, permeability through the cell layer, was calculated using the following formula:
Papp=(C(t)*V)/(C(0)*t*Area), wherein
The value was calculated with the following formula:
efflux=Papp B-A/Papp A-B, wherein • Papp A-B—the volume of permeability in A→B test; • Papp B-A—he volume of permeability in B→A test.
On the technique in general: Caco-2 monolayers are a common model of the intestinal barrier.

The IC50 is the concentration that inhibits the measured activity by half. A low value points to greater potency. In general, Papp A→B refers to how fast a substance crosses the layer from the apical side. As usually defined, the efflux ratio is the permeability from basolateral to apical divided by that in the opposite direction, in the common usage.

Structures can show the parent of a compound that is named as a salt.

As for `C=CC(=O)Nc1cc(Nc2cc(C(=O)c3ccc(N4CC(OC)C4)cc3)ccn2)c(OC)cc1N(C)CCN(C)C` (racemic) [EGFR_3365_53, N-(2-((2-(dimethylamino)ethyl)(methyl)amino)-4-methoxy-5-((4-(4-(3-methoxyazetidin-1-yl)benzoyl)pyridin-2-yl)amino)phenyl)acrylamide], the “Stability in SIF, %” value in data set [1] was 98.8%. Besides, the “Stability in blood plasma, %” value in data set [2] is 91.8%. Besides, it took 26.6 nM to reach half-maximal inhibition in data set [3] (IC50).

Take `C=CC(=O)Nc1cc(Nc2cc(C(=O)c3ccc(N(C)C)cc3)ccn2)c(OC)cc1N(C)CCN(C)C.O=C(O)C(F)(F)F` [EGFR_3365_4, N-(5-((4-(4-(dimethylamino)benzoyl)pyridin-2-yl)amino)-2-((2-(dimethylamino)ethyl) (methyl)amino)-4-methoxyphenyl)acrylamide 2,2,2-trifluoroacetate]: the “Stability in SIF, %” value in data set [1] is recorded as 100.0%. For the same compound, in data set [4], the Papp A→B at 2 h, 10 µM was 2.86 ×10⁻⁶ cm/s and the efflux ratio at 2 h, 10 µM stood at 2. The same compound showed an IC50 in data set [3] of 15.3 nM.

As for `C=CC(=O)Nc1cc(Nc2nccc(C(=O)c3ccc(OCc4ccccc4)cc3)n2)c(OC)cc1N(C)CCN(C)C` [EGFR_3365_16, N-(5-((4-(4-(benzyloxy)benzoyl)pyrimidin-2-yl)amino)-2-((2-(dimethylamino)ethyl)(methyl)amino)-4-methoxyphenyl)acrylamide], the “Stability in SIF, %” value in data set [1] is listed as 100.0%. The “Stability in blood plasma, %” value in data set [2] stood at 83.5%. The compound also gave an IC50 in data set [3] of 10 nM.

In the case of `C=CC(=O)Nc1cc(Nc2nccc(C(=O)c3ccc(Oc4ccccc4)cc3)n2)c(OC)cc1N(C)CCN(C)C` [EGFR_3365_17, N-(2-((2-(dimethylamino)ethyl)(methyl)amino)-4-methoxy-5-((4-(4-phenoxybenzoyl)pyrimidin-2-yl)amino)phenyl)acrylamide], the “Stability in SIF, %” value in data set [1] is 98.8%. Further, the “Stability in blood plasma, %” value in data set [2] is recorded as 97.0%. Besides, in data set [3], the IC50 is 41.3 nM.

As to `C=CC(=O)Nc1cc(Nc2nccc(C(=O)c3ccc(OCCC)cc3)n2)c(OC)cc1N(C)CCN(C)C` [EGFR_3365_30, N-(2-((2-(dimethylamino)ethyl)(methyl)amino)-4-methoxy-5-((4-(4-propoxybenzoyl)pyrimidin-2-yl)amino)phenyl)acrylamide], the “Stability in SIF, %” value in data set [1] is given as 92.9%. Besides, in data set [4], the Papp A→B at 2 h, 10 µM stood at 4.36 ×10⁻⁶ cm/s and the efflux ratio at 2 h, 10 µM turned out to be 0.5. In data set [3], this compound gave an IC50 of 2 nM.

Turning to `C=CC(=O)Nc1cc(Nc2cc(C(=O)c3ccc(OC)cc3)ccn2)c(OC)cc1N(C)CCN(C)C` [EGFR_3365_51, N-(2-((2-(dimethylamino)ethyl)(methyl)amino)-4-methoxy-5-((4-(4-methoxybenzoyl)pyridin-2-yl)amino)phenyl)acrylamide], in data set [1], the “Stability in SIF, %” value is recorded as 100.0%. In data set [4], the Papp A→B at 2 h, 10 µM was 3.2 ×10⁻⁶ cm/s and the efflux ratio at 2 h, 10 µM is 1.7. In data set [3], this compound yielded a half-maximal inhibitory concentration (IC50) of 8.6 nM.

Take `C=CC(=O)Nc1cc(Nc2cc(C(=O)c3ccc(N4CCN(C)CC4)cc3)ccn2)c(OC)cc1N(C)CCN(C)C` [EGFR_3365_55, N-(2-((2-(dimethylamino)ethyl)(methyl)amino)-4-methoxy-5-((4-(4-(4-methylpiperazin-1-yl)benzoyl)pyridin-2-yl)amino)phenyl)acrylamide]: the “Stability in SIF, %” value in data set [1] is 97.2%. Besides, the “Stability in blood plasma, %” value in data set [2] was 84.8%. Further, the IC50 in data set [3] came out at 20.1 nM.

As for `C=CC(=O)Nc1cc(Nc2nccc(C(=O)c3ccc(N4CCN(C)CC4)cc3)n2)c(OC)cc1N(C)CCN(C)C` [EGFR_3365_62, N-(2-((2-(dimethylamino)ethyl)(methyl)amino)-4-methoxy-5-((4-(4-(4-methylpiperazin-1-yl)benzoyl)pyrimidin-2-yl)amino)phenyl)acrylamide formate], the “Stability in SIF, %” value in data set [1] is 100.0%. Also, the “Stability in blood plasma, %” value in data set [2] was found to be 98.4%. This compound also had an IC50 in data set [3] of 12.1 nM.

Consider `C=CC(=O)Nc1cc(Nc2nccc(C(=O)c3ccc(OCC)cc3OCC)n2)c(OC)cc1N(C)CCN(C)C` [EGFR_3365_68, N-(5-((4-(2,4-diethoxybenzoyl)pyrimidin-2-yl)amino)-2-((2-(dimethylamino)ethyl) (methyl)amino)-4-methoxyphenyl)acrylamide], for which the “Stability in SIF, %” value in data set [1] was 98.2%. Besides, in data set [2], the “Stability in blood plasma, %” value amounted to 78.4%. This compound also displayed an IC50 in data set [3] of 19.1 nM.

On to `C=CC(=O)Nc1cc(Nc2nccc(C(=O)c3ccc(OC)cc3OC)n2)c(OC)cc1N(C)CCN(C)C` [EGFR_3365_69, N-(5-((4-(2,4-dimethoxybenzoyl)pyrimidin-2-yl)amino)-2-((2-(dimethylamino)ethyl)(methyl)amino)-4-methoxyphenyl)acrylamide], for which, in data set [1], the “Stability in SIF, %” value was 100.0%. In addition, the “Stability in blood plasma, %” value in data set [2] is reported as 100.0%. In addition, 2.46 nM corresponded to half-maximal inhibition in data set [3] (IC50).

Take `C=CC(=O)Nc1cc(Nc2cc(C(=O)c3ccc(-c4cnn(C)c4)cc3)ccn2)c(OC)cc1N(C)CCN(C)C` [EGFR_3365_85, N-(2-((2-(dimethylamino)ethyl)(methyl)amino)-4-methoxy-5-((4-(4-(1-methyl-1H-pyrazol-4-yl)benzoyl)pyridin-2-yl)amino)phenyl) acrylamide]: in data set [1], the “Stability in SIF, %” value is 98.4%. For the same compound, the “Stability in blood plasma, %” value in data set [2] was 100.0%. Further, the IC50 in data set [3] is 18 nM.

On to `C=CC(=O)Nc1cc(Nc2nccc(C(=O)c3ccc(N4CCCCC4)cc3)n2)c(OC)cc1N(C)CCN(C)C` [EGFR_3365_90, N-(2-((2-(dimethylamino)ethyl)(methyl)amino)-4-methoxy-5-((4-(4-(piperidin-1-yl)benzoyl)pyrimidin-2-yl)amino)phenyl)acrylamide], for which the “Stability in blood plasma, %” value in data set [2] was 98.1%. Also, in data set [4], the Papp A→B at 2 h, 10 µM worked out at 2.2 ×10⁻⁶ cm/s and the efflux ratio at 2 h, 10 µM worked out at 1.49. Half-maximal inhibition in data set [3] (IC50) required 4.39 nM.

As to `C=CC(=O)Nc1cc(Nc2nccc(C(=O)c3cc4ccccc4n3C)n2)c(OC)cc1N(C)CCN(C)C` [EGFR_3365_94, N-(2-((2-(dimethylamino)ethyl) (methyl)amino)-4-methoxy-5-((4-(1-methyl-1H-indole-2-carbonyl)pyrimidin-2-yl)amino)phenyl)acrylamide], the “Stability in blood plasma, %” value in data set [2] is listed as 83.3%. For the same compound, in data set [4], the apical-to-basolateral permeability (Papp A→B) at 2 h, 10 µM came to 6.54 ×10⁻⁶ cm/s and the efflux ratio at 2 h, 10 µM was found to be 0.86.

For the compound `C=CC(=O)Nc1cc(Nc2nccc(C(=O)c3ccc(OC)cc3OCCC)n2)c(OC)cc1N(C)CCN(C)C` [EGFR_3365_102, N-(2-((2-(dimethylamino)ethyl)(methyl)amino)-4-methoxy-5-((4-(4-methoxy-2-propoxybenzoyl)pyrimidin-2-yl)amino)phenyl)acrylamide], in data set [2], the “Stability in blood plasma, %” value is on record as 82.7%. For the same compound, in data set [4], the Papp A→B at 2 h, 10 µM amounted to 27.5 ×10⁻⁶ cm/s and the efflux ratio at 2 h, 10 µM was determined as 1.62.

Consider `C=CC(=O)Nc1cc(Nc2nccc(C(=O)c3ccc(N4CCC(N)CC4)cc3)n2)c(OC)cc1N(C)CCN(C)C` [EGFR_3365_121, N-(5-((4-(4-(4-aminopiperidin-1-yl)benzoyl)pyrimidin-2-yl)amino)-2-((2-(dimethylamino)ethyl)(methyl)amino)-4-methoxyphenyl)acrylamide], for which the “Stability in blood plasma, %” value in data set [2] came to 98.3%. Besides, in data set [4], the apparent permeability from apical to basolateral (Papp A→B) at 2 h, 10 µM is 1.87 ×10⁻⁶ cm/s and the efflux ratio at 2 h, 10 µM is 0.87. The same compound yielded an IC50 in data set [3] of 15.2 nM.
